Test results: PubChem BioAssay AID2060508 (Molecular Pharmacology Branch, DTP, NCI, 2025)

System: 454973-116-R2-J3-PDC spheroids, viability, % test/control
Experiment: Anticancer human tumor 454973-116-R2-J3-PDC patient-derived pancreatic carcinoma cell line growth inhibition [GQUAD]
Conditions: spheroids with HUVEC and MSC; for IC50: curve of first compound; for viability, T/C: stronger effect = lower value
How it was run: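 Tumor cells were grown as complex spheroids with HUVEC endothelial cells and mesenchymal stem cells as stroma. G-quadruplex stabilizers were combined with targeted agents over half-log dilutions from near the clinical Cmax, or from 10 microM.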

[1] = second compound 0.0316 µM, first compound 0.0316 µM
[2] = second compound 0.0316 µM, first compound 0.1 µM
[3] = second compound 0.0316 µM, first compound 0.316 µM
[4] = second compound 0.0316 µM, first compound 1 µM
[5] = second compound 0.0316 µM, first compound 3.16 µM
[6] = second compound 0.0316 µM, first compound 10 µM
[7] = second compound 0.1 µM, first compound 0.0316 µM
[8] = second compound 0.1 µM, first compound 0.1 µM
[9] = second compound 0.1 µM, first compound 0.316 µM
[10] = second compound 0.1 µM, first compound 1 µM
[11] = second compound 0.1 µM, first compound 3.16 µM
[12] = second compound 0.1 µM, first compound 10 µM
[13] = second compound 0.316 µM, first compound 0.0316 µM
[14] = second compound 0.316 µM, first compound 0.1 µM
[15] = second compound 0.316 µM, first compound 0.316 µM
[16] = second compound 0.316 µM, first compound 1 µM
[17] = second compound 0.316 µM, first compound 3.16 µM
[18] = second compound 0.316 µM, first compound 10 µM
[19] = second compound 1 µM, first compound 0.0316 µM
[20] = second compound 1 µM, first compound 0.1 µM
[21] = second compound 1 µM, first compound 0.316 µM
[22] = second compound 1 µM, first compound 1 µM
[23] = second compound 1 µM, first compound 3.16 µM
[24] = second compound 1 µM, first compound 10 µM
[25] = second compound 3.16 µM, first compound 0.0316 µM
[26] = second compound 3.16 µM, first compound 0.1 µM
[27] = second compound 3.16 µM, first compound 0.316 µM
[28] = second compound 3.16 µM, first compound 1 µM
[29] = second compound 3.16 µM, first compound 3.16 µM
[30] = second compound 3.16 µM, first compound 10 µM
[31] = second compound 10 µM, first compound 0.0316 µM
[32] = second compound 10 µM, first compound 0.1 µM
[33] = second compound 10 µM, first compound 0.316 µM
[34] = second compound 10 µM, first compound 1 µM
[35] = second compound 10 µM, first compound 3.16 µM
[36] = second compound 10 µM, first compound 10 µM
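Note: spheroids exposed to compounds for seven days.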
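Throughout, for viability, T/C: 100% = DMSO vehicle control viability.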

SMILES: CC(C)(O)C1CCC(Nc2ccc3ncc(-c4cccc(C(F)(F)F)c4)n3n2)CC1 (stereo unspecified) + CN(C)c1ccc(Nc2c3ccc(NC(=O)CCN4CCCC4)cc3nc3cc(NC(=O)CCN4CCCC4)ccc23)cc1
- IC50 (second compound 0.0316 µM): 1780 nM
- IC50 (second compound 0.1 µM): 1730 nM
- IC50 (second compound 0.316 µM): 1540 nM
- IC50 (second compound 1 µM): 1250 nM
- IC50 (second compound 3.16 µM): 739 nM
- IC50 (second compound 10 µM): 808 nM
- viability, T/C [1]: 108%
- viability, T/C [2]: 101%
- viability, T/C [3]: 94.8%
- viability, T/C [4]: 77%
- viability, T/C [5]: 17.3%
- viability, T/C [6]: 29.5%
- viability, T/C [7]: 93.8%
- viability, T/C [8]: 90.3%
- viability, T/C [9]: 102%
- viability, T/C [10]: 72.6%
- viability, T/C [11]: 15.6%
- viability, T/C [12]: 34.5%
- viability, T/C [13]: 95.3%
- viability, T/C [14]: 90.3%
- viability, T/C [15]: 83.9%
- viability, T/C [16]: 62.9%
- viability, T/C [17]: 23.3%
- viability, T/C [18]: 33.2%
- viability, T/C [19]: 87.9%
- viability, T/C [20]: 92%
- viability, T/C [21]: 84.5%
- viability, T/C [22]: 55.8%
- viability, T/C [23]: 22.6%
- viability, T/C [24]: 30.5%
- viability, T/C [25]: 85.8%
- viability, T/C [26]: 82.7%
- viability, T/C [27]: 80.2%
- viability, T/C [28]: 39.4%
- viability, T/C [29]: 22.6%
- viability, T/C [30]: 31.6%
- viability, T/C [31]: 62.3%
- viability, T/C [32]: 64.8%
- viability, T/C [33]: 55%
- viability, T/C [34]: 48.1%
- viability, T/C [35]: 12.1%
- viability, T/C [36]: 10.4%

SMILES: Cc1cccc(N(C)C(=O)C2C(O)CCN2c2nc(C)cc(C(F)(F)F)c2C#N)c1 (stereo unspecified) + Cc1[nH]c2ccc(F)cc2c1-c1nc2c3cccnc3c3ncccc3c2[nH]1
- IC50 (second compound 0.0316 µM): > 10000 nM
- IC50 (second compound 0.1 µM): > 10000 nM
- IC50 (second compound 0.316 µM): > 10000 nM
- IC50 (second compound 1 µM): > 10000 nM
- IC50 (second compound 3.16 µM): > 10000 nM
- IC50 (second compound 10 µM): > 10000 nM
- viability, T/C [1]: 102%
- viability, T/C [2]: 94.9%
- viability, T/C [3]: 104%
- viability, T/C [4]: 102%
- viability, T/C [5]: 108%
- viability, T/C [6]: 98%
- viability, T/C [7]: 102%
- viability, T/C [8]: 100%
- viability, T/C [9]: 103%
- viability, T/C [10]: 97.7%
- viability, T/C [11]: 115%
- viability, T/C [12]: 108%
- viability, T/C [13]: 104%
- viability, T/C [14]: 104%
- viability, T/C [15]: 109%
- viability, T/C [16]: 101%
- viability, T/C [17]: 109%
- viability, T/C [18]: 110%
- viability, T/C [19]: 103%
- viability, T/C [20]: 105%
- viability, T/C [21]: 113%
- viability, T/C [22]: 107%
- viability, T/C [23]: 112%
- viability, T/C [24]: 106%
- viability, T/C [25]: 86.8%
- viability, T/C [26]: 88.7%
- viability, T/C [27]: 97.4%
- viability, T/C [28]: 106%
- viability, T/C [29]: 103%
- viability, T/C [30]: 105%
- viability, T/C [31]: 105%
- viability, T/C [32]: 95.8%
- viability, T/C [33]: 101%
- viability, T/C [34]: 90.2%
- viability, T/C [35]: 99%
- viability, T/C [36]: 101%

SMILES: O=C(NO)c1cnc(N2CCN(S(=O)(=O)c3ccc4ccccc4c3)CC2)nc1 + Cc1[nH]c2ccc(F)cc2c1-c1nc2c3cccnc3c3ncccc3c2[nH]1
- IC50 (second compound 0.0316 µM): 221 nM
- IC50 (second compound 0.1 µM): 360 nM
- IC50 (second compound 0.316 µM): 384 nM
- IC50 (second compound 1 µM): 476 nM
- IC50 (second compound 3.16 µM): 464 nM
- IC50 (second compound 10 µM): 533 nM
- viability, T/C [1]: 108%
- viability, T/C [2]: 84.8%
- viability, T/C [3]: 35.3%
- viability, T/C [4]: 2.53%
- viability, T/C [5]: 0.14%
- viability, T/C [6]: 0.29%
- viability, T/C [7]: 108%
- viability, T/C [8]: 104%
- viability, T/C [9]: 55.7%
- viability, T/C [10]: 4.86%
- viability, T/C [11]: 0.14%
- viability, T/C [12]: 0.64%
- viability, T/C [13]: 121%
- viability, T/C [14]: 96.2%
- viability, T/C [15]: 62.1%
- viability, T/C [16]: 10%
- viability, T/C [17]: 0.1%
- viability, T/C [18]: 1.14%
- viability, T/C [19]: 89.6%
- viability, T/C [20]: 92.1%
- viability, T/C [21]: 73%
- viability, T/C [22]: 8.33%
- viability, T/C [23]: 0.1%
- viability, T/C [24]: 0.86%
- viability, T/C [25]: 105%
- viability, T/C [26]: 93.7%
- viability, T/C [27]: 66.9%
- viability, T/C [28]: 18.1%
- viability, T/C [29]: 0.16%
- viability, T/C [30]: 0.16%
- viability, T/C [31]: 93.6%
- viability, T/C [32]: 90.2%
- viability, T/C [33]: 76.9%
- viability, T/C [34]: 17.7%
- viability, T/C [35]: 0.22%
- viability, T/C [36]: 0.21%
